The assay concerns the target Muscarinic acetylcholine receptor M1 (Homo sapiens) (UniProt P11229). Kind of assay: potentiation of ACh response at hM1 – CHO-K1 cells, calcium fluorescence, selectivity assay for M4 PAM optimization, SAR follow-up (AID 623924). As to conditions: ACh EC20 potentiation; for % ACh max response: at 30 µM (top of the series).

Activity calls are given as the source filed them.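 The calls were made as follows: active = response changes with concentration, giving a dose-dependent curve as judged by the depositor; inactive = the rest, with no dose-dependent response.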

Muscarinic acetylcholine receptor M1 (Homo sapiens), sequence (P11229 whole entry, looked up): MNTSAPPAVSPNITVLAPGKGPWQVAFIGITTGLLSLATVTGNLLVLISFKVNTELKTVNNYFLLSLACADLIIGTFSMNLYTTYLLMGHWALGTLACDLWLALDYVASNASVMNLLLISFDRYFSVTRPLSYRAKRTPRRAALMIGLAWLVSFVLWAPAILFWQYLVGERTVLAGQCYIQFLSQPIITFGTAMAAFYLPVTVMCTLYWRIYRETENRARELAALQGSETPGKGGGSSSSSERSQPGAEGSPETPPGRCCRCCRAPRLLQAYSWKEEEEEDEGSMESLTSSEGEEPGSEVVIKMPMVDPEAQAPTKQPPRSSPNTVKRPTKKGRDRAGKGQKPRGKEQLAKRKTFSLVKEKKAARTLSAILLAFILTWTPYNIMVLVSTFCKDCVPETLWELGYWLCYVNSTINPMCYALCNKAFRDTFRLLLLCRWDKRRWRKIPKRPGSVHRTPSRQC

As to `Cc1nc2sc(C(=O)NCc3ccccc3)c(N)c2c(C)c1Cl`, the result was inactive.

As for `Cc1nc2sc(C(=O)NCc3cccnc3)c(N)c2c(C)c1Cl`, the result was inactive. For `Cc1nc2sc(C(=O)NCc3ccncn3)c(N)c2c(C)c1Cl`, the “% ACh max response” value was “inactive”. In the case of `Cc1nc2sc(C(=O)NCc3nccs3)c(N)c2c(C)c1Cl`, the “% ACh max response” value was “inactive”.

Regarding `Cc1nc2sc(C(=O)NCc3ccc4c(c3)OCO4)c(N)c2c(C)c1Cl`, the result was inactive. `Cc1nc2sc(C(=O)NCc3ccncc3)c(N)c2c(C)c1Cl`: the outcome was inactive. Regarding `Cc1nc2sc(C(=O)NCc3cccc(F)c3F)c(N)c2c(C)c1Cl`, the “% ACh max response” value was “inactive”. Same read-out and setting: then `Cc1nc2sc(C(=O)NCCc3ccncc3)c(N)c2c(C)c1Cl`, with “inactive”; and `COc1ccc(C)c2sc(NC(=O)c3ccncc3)nc12`, with “inactive”. For the compound `Cc1nc2sc(C(=O)NC3CC3)c(N)c2c(C)c1Cl`, the EC50 is 0.969 µM.

A word on the EC50: it is the concentration needed to bring the measured effect to its halfway point.

Source of the values: PubChem BioAssay AID623924 (Vanderbilt Specialized Chemistry Center, 2012).
